# “Also recorded” adds a separate entry of the source.
# What was measured:
# [1] = system: Alveolus-Chip epithelium/endothelium barrier; test: Barrier function assay (fluorescent dextran / Lucifer Yellow leakage) in Open-Top Alveolus-Chip; assay type: cell-based, human; details: for reversibility of barrier breakdown after removal of stressor: additional 2 days in fresh medium; for preventive effect on barrier leakage: co-administered with H2O2 (10 mM), 50 nM Bardoxolone, 0.01-1.0 μM GSK, 2 μM JQ1
# Description: We studied interaction between different chip compartments by perturbating the system with biological and chemical stressors such as LPS, and H2O2 which are known to induce a reversible disruption of the cellular monolayer after acute administration both in vivo and in vitro. […] The presence of a strong barrier is indirectly confirmed by the presence of continuous pattern of E-cad and VE-cad in the monolayer of Alveolar epithelial and endothelial cell, respectively.
# (§1) Given the limited availability of in vitro models that can closely mimic human alveolar epithelium function and/or its disease states, we explored whether a microfluidic Alveolus-Chip lined with the primary alveolar epithelial cells on an artificial lung stroma with embedded primary lung fibroblasts and pulmonary microvascular endothelial cells would model a lung injury state. To test this, we exposed the Alveolus-Chips to an acute damage generated by exposure to H2O2 under continuous infusion through the epithelium top channel, similarly to as it is […] administered in mice.
# Air-Liquid interface was replaced by phenol red free MEM (GIBCO: 51200-038) and medium in the bottom fluidical spiraled channel substituted by one containing 1 mg/ml Lucifer Yellow CH, Lithium Salt (ThermoFisher: L453) or 0.1 mg/ml Dextran, Fluorescein, 3000 MW, Anionic, Lysine Fixable (ThermoFisher: D3306). Leakage of the fluorescent probe from the lumen of the spiraled channel to the epithelial compartment was collected from the outlet reservoirs after indicated hours of perfusion. The fluorescence intensity was measured with a 96-well fluorimeter at excitation/emission indicated by the manufacturer.
# [2] = system: cellular monolayer barrier; test: Barrier function in static transwell; assay type: cell-based; details: doses up to 100 ng/ml LPS, 10 mM H2O2
# [3] = system: IL-6, IL-8 and MCP-1; test: Cytokine secretion in chip medium effluent (ELISA); assay type: cell-based, human; details: 24 hours of exposure
# Description: We studied interaction between different chip compartments by perturbating the system with biological and chemical stressors such as LPS, and H2O2 which are known to induce a reversible disruption of the cellular monolayer after acute administration both in vivo and in vitro. […] To assess changes in the barrier function following the exposure to these insults, we added a fluorescent dye (e.g. […]—Dextran-FITC) to the endothelial compartment, which is under control condition confirmed that the endothelium and epithelium form a barrier to the dies. The presence of a strong barrier is also indirectly confirmed by the presence of continuous pattern of E-cad and VE-cad in the monolayer of Alveolar epithelial and endothelial cell, respectively. […] We also decoupled the effect of single biological component to the inflammatory response by selectively removing them from the system in an integrated matrix. […] In fact, the recorded value of IL-6 and IL-8 is not the algebraic sum of the concentration of the factors released by the single cellular components. […]
# The amount of Surfactant B and C was collected from chip epithelial cell surface by PBS washing and measured by Human SFTPB/Surfactant Protein B ELISA Kit (Sandwich ELISA)—LS-F4439 and Human SFTPC/Surfactant Protein C ELISA Kit (Sandwich ELISA)—LS-F12438 (LifeSpanBioScience) following the manufacturer's protocol. The color reaction was measured at 450 nm with a photometer (specification). […] Similarly, the presence of IL-6, IL-8 and MPC in medium samples was detected by Human TLR-induced Cytokines II: Microbial-induced Multi-Analyte ELISArray Kit (MEH-008A) (Qiogen) following the manufacturer's protocol. The color reaction was measured at 450 nm with a photometer (specification). […]
# [4] = system: E-Cadherin; test: E-Cadherin / phalloidin imaging of Alveolus-Chip epithelium after H2O2; assay type: cell-based, human
# Method: In one embodiment, a method is used for testing the effects of activating the Nrf2 system on pathological cell responses using an activating treatment, such as H2O2; LPS, etc. […] Control left panel, H2O2 (10 mM) (48 h) treatment, right panel. E-cadherin (green) actin (pink) and nuclei blue.
# as §1
# Open-Top Organ-Chips were fixed in 10% neutral buffered formalin. Endothelial cells were stained inside the chip by performinutesg the immunofluorescence steps described below directly inside the microfluidic channel. Stroma equivalents were stained as described by the step below inside the chip or alternatively extracted from the chip and processed for immunohistochemistry analysis. […]
# [5] = system: alpha smooth muscle Actin (alpha-SMA); test: TGF-β treatment of open top Alveolar-Chip (EMT markers, immunostaining / qRT-PCR); assay type: cell-based, human; details: TGF-β up to 72 hours, versus vehicle
# Description: E-cadherin is shown in pink.
# [6] = system: human airway epithelium on-chip; details: cited from earlier work
compound,measurement,setting,value
OO [H2O2],effect of stressor on barrier function,[1]; LPS 10 ng/ml and/or H2O2 10 mM,causes barrier breakdown and disruption of intracellular junction; also recorded: significant loss of barrier function
same,reversibility of barrier breakdown after removal of stressor,[1],barrier breakdown in our chip was reversable
same,loss of barrier function,[2],dose dependent loss of barrier function
same,"release of IL-6, IL-8 and MCP-1 in medium effluent",[3],no apparent correlation
same,E-Cadherin distribution,"[4]; H2O2 10 mM, 48 h",induces redistribution of E-Cadherin; also recorded: pronounced loss and re-distribution of E-Cadherin
same,pneumocyte monolayer integrity (microscopy),[4]; H2O2 continuous infusion through epithelium top channel,disruption of the pneumocyte monolayer with partial cell detachment
"TGF-β: transforming growth factor beta1, cytokine inducing epithelial to mesenchymal transition",reversibility of barrier breakdown after removal of stressor,[1],barrier breakdown in our chip was reversable
same,ICAM-1 staining,[5],lack of ICAM-1
same,alpha-SMA induction,[5],induction of alpha smooth muscle Actin (alpha-SMA)
"CC1(C)CC[C@]2(C(=O)O)CC[C@]3(C)[C@H](C(=O)C=C4[C@@]5(C)C=C(C#N)C(=O)C(C)(C)[C@@H]5CC[C@]43C)[C@@H]2C1 [Bardoxolone, Bardoxolone (methyl)]",preventive effect on barrier leakage,[1],significant preventive effect on the barrier leakage
C[C@@H]1CCN(C(=O)CC#N)C[C@@H]1N(C)c1ncnc2[nH]ccc12 [Tofacitinib],effect on IL-13 induced phenotype,[6],suppressed
IL-13: cytokine perfused to mimic a Th2 enriched microenvironment,airway phenotype on IL-13 perfusion through the vascular channel,[6],significant airway remodeling with goblet cells hyperplasia
"Cc1sc2c(c1C)C(c1ccc(Cl)cc1)=N[C@@H](CC(=O)OC(C)(C)C)c1nnc(C)n1-2 [JQ1, thienotriazolodiazepine]",preventive effect on barrier leakage,[1],significant preventive effect on the barrier leakage
